The supplement of paper PMC10307832

Columns and labels:
Test in all cases: relative viability (nuclei count vs DMSO), 5 days (fraction); higher = more cells survive
ALW-II-49-7 + Crizotinib = compound: Cc1ccc(C(=O)Nc2cccc(C(F)(F)F)c2)cc1Nc1cncc(C(N)=O)c1 [ALW-II-49-7] + C[C@@H](Oc1cc(-c2cnn(C3CCNCC3)c2)cnc1N)c1c(Cl)ccc(F)c1Cl [Crizotinib] (partner 1 µM)
Summary of the method: (§1)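 One day after seeding in 1536-well plates, lung cancer cell lines were dosed by pin tool. Dosing was either single-drug or a fixed anchor-drug dose plus five library-drug doses (not always all listed) in √10 steps. After 5 days, nuclei were stained in one fix-and-stain step and counted on 4× images, and relative viability is the nuclei count of treated wells over that of vehicle wells, given as the median of duplicate plates.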

ALW-II-49-7 + Navitoclax = compound: Cc1ccc(C(=O)Nc2cccc(C(F)(F)F)c2)cc1Nc1cncc(C(N)=O)c1 [ALW-II-49-7] + CC1(C)CCC(c2ccc(Cl)cc2)=C(CN2CCN(c3ccc(C(=O)NS(=O)(=O)c4ccc(N[C@H](CCN5CCOCC5)CSc5ccccc5)c(S(=O)(=O)C(F)(F)F)c4)cc3)CC2)C1 [Navitoclax] (partner 0.5 µM)
Summary of the method: as §1

Dasatinib + Vorinostat = compound: Cc1nc(Nc2ncc(C(=O)Nc3c(C)cccc3Cl)s2)cc(N2CCN(CCO)CC2)n1 [Dasatinib] + O=C(CCCCCCC(=O)Nc1ccccc1)NO [Vorinostat] (partner 1 µM)
Summary of the method: as §1

XMD13-2 + Tozasertib = compound: C1CC1C(=O)NC2=NNC3=C2C=CC(=C3)C4=CC(=CC=C4)C(=O)NC5CC5 [XMD13-2] + Cc1cc(Nc2cc(N3CCN(C)CC3)nc(Sc3ccc(NC(=O)C4CC4)cc3)n2)n[nH]1 [Tozasertib] (partner 0.1 µM)
Summary of the method: as §1

UMC-11
relative viability (ALW-II-49-7 + Crizotinib; first compound 0.08 µM): 0.531 | relative viability (ALW-II-49-7 + Crizotinib; first compound 0.253 µM): 0.613 | relative viability (ALW-II-49-7 + Crizotinib; first compound 2.53 µM): 0.755 | relative viability (ALW-II-49-7 + Crizotinib; first compound 8 µM): 0.553 | relative viability (ALW-II-49-7 + Navitoclax; first compound 0.08 µM): 0.311 | relative viability (ALW-II-49-7 + Navitoclax; first compound 0.253 µM): 0.345 | relative viability (ALW-II-49-7 + Navitoclax; first compound 2.53 µM): 0.322 | relative viability (ALW-II-49-7 + Navitoclax; first compound 8 µM): 0.335 | relative viability (Dasatinib + Vorinostat; first compound 0.005 µM): 0.409 | relative viability (Dasatinib + Vorinostat; first compound 0.01581 µM): 0.289 | relative viability (Dasatinib + Vorinostat; first compound 0.05 µM): 0.315 | relative viability (Dasatinib + Vorinostat; first compound 0.1581 µM): 0.203 | relative viability (Dasatinib + Vorinostat; first compound 0.5 µM): 0.218 | relative viability (XMD13-2 + Tozasertib; first compound 0.05 µM): 0.188 | relative viability (XMD13-2 + Tozasertib; first compound 0.1581 µM): 0.197 | relative viability (XMD13-2 + Tozasertib; first compound 0.5 µM): 0.197 | relative viability (XMD13-2 + Tozasertib; first compound 1.581 µM): 0.204 | relative viability (XMD13-2 + Tozasertib; first compound 5 µM): 0.192
